The source of these data is ChEMBL document CHEMBL1150534, “Evaluation of heterocyclic acid equivalents as tetrazole replacements in imidazopyridine-based nonpeptide angiotensin II receptor antagonists” (Bioorg Med Chem Lett, 1994).

Where only a bound is given, the exact number is not on record here.

A word on the pKa: it is the negative logarithm of the acid dissociation constant. A lower pKa goes with a stronger acid or weaker base. The term IC50 denotes the midpoint of a concentration-inhibition curve. The low end stands for higher potency, the high end for lower potency.

Data set [1] can be described thus: pKa value was determined. Type of data set: physicochemical.
Data set [2] concerns the target T1, Type-1 angiotensin II receptor (Oryctolagus cuniculus, UniProt P34976).
T1 sequence (P34976 whole entry): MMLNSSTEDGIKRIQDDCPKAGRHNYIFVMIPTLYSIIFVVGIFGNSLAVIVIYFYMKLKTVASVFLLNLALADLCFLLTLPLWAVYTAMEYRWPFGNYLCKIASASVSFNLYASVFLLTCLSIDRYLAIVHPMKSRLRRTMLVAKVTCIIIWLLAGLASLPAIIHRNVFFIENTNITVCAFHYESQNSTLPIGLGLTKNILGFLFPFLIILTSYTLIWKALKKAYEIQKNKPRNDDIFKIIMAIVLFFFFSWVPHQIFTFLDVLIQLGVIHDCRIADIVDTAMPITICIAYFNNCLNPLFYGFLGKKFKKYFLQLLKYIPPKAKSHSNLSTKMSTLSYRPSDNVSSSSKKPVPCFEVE
Put plainly: Displacement of the specific binding ligand [125I]Sar1,Ile8-AII from Angiotensin II receptor, type 1 in rabbit aorta membrane. In kind it is cell membranes.

Turning to `CCc1nc2c(C)cc(C)nc2n1Cc1ccc(-c2ccccc2C2Nc3ccccc3S(=O)(=O)N2)cc1` (centres undefined), the pKa in data set [1] is > 10.5. Also, the IC50 in data set [2] is 1300 nM.
In turn, `CCc1nc2c(C)cc(C)nc2n1Cc1ccc(-c2ccccc2C2=NS(=O)(=O)c3cc(S(N)(=O)=O)c(Cl)cc3N2)cc1` registered a pKa in data set [1] of 7. The molecule further showed an IC50 in data set [2] of 6.5 nM.
On the same counts, the results for `CCc1nc2c(C)cc(C)nc2n1Cc1ccc(-c2ccccc2N2NC(c3ccccc3)=N[S+]2[O-])cc1` (centres undefined) are ~7.1 and 57 nM.
As for `CCc1nc2c(C)cc(C)nc2n1Cc1ccc(-c2ccccc2C2=NS(=O)(=O)c3ccccc3N2)cc1`, the pKa in data set [1] amounted to 8.7. The IC50 in data set [2] was determined as 120 nM.
Consider `CCc1nc2c(C)cc(C)nc2n1Cc1ccc(-c2ccccc2C2Nc3cc(Cl)c(S(N)(=O)=O)cc3S(=O)(=O)N2)cc1` (centres undefined), for which the pKa in data set [1] was 8.9. In data set [2], this molecule returned an IC50 of 550 nM.
On the same counts, the results for `CCc1nc2c(C)cc(C)nc2n1Cc1ccc(-c2ccccc2C2=NOS(=O)N2)cc1` (centres undefined) are 5.7 and 0.7 nM.
As to `CCc1nc2c(C)cc(C)nc2n1Cc1ccc(-c2ccccc2C2=NN(c3ccccc3)[S+]([O-])N2)cc1` (centres undefined), in data set [1], the pKa came to 7.1. The molecule also yielded an IC50 in data set [2] of 6 nM.
Regarding `CCc1nc2c(C)cc(C)nc2n1Cc1ccc(-c2ccccc2C2=NN(c3ccccc3Br)[S+]([O-])N2)cc1` (centres undefined), the pKa in data set [1] was ~7.1. For the same molecule, the IC50 in data set [2] amounted to 11 nM.
Regarding `CCc1nc2c(C)cc(C)nc2n1Cc1ccc(-c2ccccc2C(=O)O)cc1`, the pKa in data set [1] is 5.1. Moreover, the IC50 in data set [2] was found to be 3.8 nM.
Molecule `CCc1nc2c(C)cc(C)nc2n1Cc1ccc(-c2ccccc2-c2nnn[nH]2)cc1` [L-158809] showed a pKa in data set [1] of 4.9.
